Measured values from patent publication US12350250B2, “Aggrelytes for treating ocular conditions” (The Regents of the University of Colorado, a Body Corporate, priority 2022, dated 2025).

Legend:
γD-crystallin (γDC) = target: T1, γD-crystallin (γDC) (Homo sapiens, UniProt P07320); assay: AGE formation (CML, CEL) in glycated recombinant γD-crystallin; type: biochemical; details: γDC 2 mg/mL pretreated with 1.25 mM aggrelyte-2 for 24 h, glycating mixture 5 days
T1 sequence (P07320 1-174): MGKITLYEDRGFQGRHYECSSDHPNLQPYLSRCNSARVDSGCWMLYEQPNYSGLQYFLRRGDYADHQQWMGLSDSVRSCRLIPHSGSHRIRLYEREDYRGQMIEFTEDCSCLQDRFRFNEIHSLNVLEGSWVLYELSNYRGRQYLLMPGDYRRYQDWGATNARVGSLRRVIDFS
Experimental: To investigate the effects of Aggrelyte-2 on advanced glycation end product (AGE) formation, human recombinant αAC (3 mg/mL) or γD-crystallin (γDC, 2 mg/mL) in PBS was treated with or without aggrelyte-2 (10 mM for αAC and 1.25 mM for γDC) for 24 h, dialyzed against 100 mM sodium phosphate buffer pH 7.4 for 16 h and incubated with or without a glycating mixture (2 mM ascorbate, 25 mM D-glucose and 250 μM methylglyoxal) in 100 mM sodium phosphate buffer pH 7.4 for 5 days (after adding 0.002% sodium azide) at 37° C. The incubated proteins were dialyzed against PBS for 16 h, treated with 100 mM sodium borohydride for 1 h at room temperature, and acid hydrolyzed. Two AGEs, N^−-carboxymethyllysine (CML) and N^□-carboxyethyllysine (CEL), were measured by LC-MS/MS as described above. Each sample was separately processed 3-4 times.

mouse lenses [1] = assay: Acetylated proteins in ex vivo treated mouse lenses (Western blot, Example 19); details: 1 mM, 24 hours
Experimental: The lenses from Example 18 were homogenized using N2-bubbled 50 mM phosphate buffer, pH 7.4 (0.4 mL per lens), in a hand-held motorized homogenizer. The homogenate was centrifuged at 20,000×g for 20 minutes at 4° C. The resulting supernatant was collected, and its protein content was measured using BCA Protein Assay Kit using BSA as the standard. The soluble protein was subjected to 12% SDS-PAGE under denaturing conditions and the proteins were electrophoretically transferred to a nitrocellulose membrane and blocked with 5% nonfat dry milk. The membrane was then incubated with a monoclonal antibody against N-acetyllysine (AcK antibody @ 1:5,000 dilution; Cell Signaling Technology Catalog #9681S) for 16 hours, followed by horseradish peroxidase (HRP)-conjugated goat anti-mouse IgG (1:5,000 dilution; Cell Signaling Technology Catalog #7076S) for 1 hour. Chemiluminescence was detected using the Enhanced Chemiluminescence Detection Kit. The membrane was stained with Ponceau-S to visualize the proteins and normalize acetyllysine (AcK)-bearing protein to total protein load.

[2] = target: T2, human lens cortical proteins (Homo sapiens, UniProt Q71U36); assay: Identification of AcK sites in proteins of Aggrelyte-2-treated lens (AcK peptide enrichment, LC-MS/MS); set-up: key to Fold Change (Aggrelyte-2 vs Control) [Total Sum]: *: were not detected in the control lens but were prominent in the Aggrelyte-2-treated lens; details: Tubulin alpha-1A chain K370
T2 construct: from tissue; host or cells: cortex of a human lens from a donor, treated ex vivo
Experimental: The AcK modification sites and relative levels at those sites in the Aggrelyte-2-treated and untreated (control) human lens cortical proteins were evaluated in the lens (from a donor) that had the largest overall AcK differential measured by Western blot analysis (blot not shown; densitometric summary in FIG. 14B) and LC-MS/MS (FIG. 15B). Each sample (315 μg) was spiked with 200 ng of acetylated bovine serum albumin (AcBSA) protein standard, reduced, alkylated, and digested with trypsin using a urea-based method and then desalted using a C18 resin before being lyophilized. The samples were then immunoprecipitated according to the manufacturer's protocol for the PTMScan Acetyl-Lysine Motif Kit No. 13416 (Cell Signaling Technology). Peptides were purified with a Pierce C18 spin column (Thermo Fisher Scientific) and dried in a Speed Vac concentrator at 45° C. The peptides were resuspended in 3% acetonitrile in 0.1% formic acid for MS analysis.
The enriched AcK-bearing peptides were loaded onto a 2 cm PepMap 100 nanoviper trapping column and chromatographically resolved with a 0.075×250 mm, […] Acclaim PepMap RSLC reversed-phase nanocolumn (Thermo Scientific) using a 1290 Infinity II LC system equipped with a nanoadapter (Agilent). The mobile phase consisted of water+0.1% formic acid (A) and 90% aqueous acetonitrile+0.1% formic acid (B). Samples were loaded onto the trapping column at 3.0 μL/min for 3.5 min under initial conditions before being chromatographically separated at an effective flow rate of 330 nL/min using a gradient of 3-8% B over 3 min, 8-30% B over 33 min, and 30-40% B over 4 min at 40° C. The gradient was followed by a column wash at 75% B for 5 min. Data were collected using a 6550 Q-TOF equipped with a nanosource (Agilent Technologies) operated using intensity-dependent CID MS/MS to generate peptide identifications. MS/MS data were collected in positive ion polarity over a mass range of 290-1700 m/z at a scan rate of 8 spectra/second for MS scans and a mass range of 50-1700 m/z at a scan rate of 3 spectra/second for MS/MS scans. All charge states, except singly charged species, were allowed during MS/MS acquisition.
Tandem mass spectra were extracted, searched, and summarized using PEAKS X+ Studio 10.5 software (Bioinformatics Solutions Inc., Waterloo, Ontario). The spectra were searched against the UniProtKB SwissProt [2022_02] Homo sapiens database, allowing for up to three missed semitryptic cleavages with fixed carbamidomethylation of cysteine and a maximum of four variable modifications of deamidation of asparagine and glutamine, oxidation of methionine and/or acetylation of lysine per peptide. The allowed monoisotopic peptide mass tolerance was ±15.0 ppm, and the MS/MS tolerance was ±0.05 da. A false discovery rate (FDR) filter of 0.5% was used corresponding to a −10 log P score ≥19.3.
The MS-only level data from the LC-MS/MS analyses were extracted and aligned using Profinder V.B.10.01 software (Agilent Technologies). Retention times, neutral masses, and chemical formulas generated from identified acetyl peptides were used to perform batch-targeted feature extraction. Data were extracted with an ion count threshold of two or more ions, 5000 counts, and a score threshold of 70. The score was based on the quality of the mass accuracy, isotope abundances, and isotope spacing of compounds based on the chemical formula of the target peptides within a specified retention time window. Using the peptide isotope model, charge states 2-6 were allowed with H^+ and Na^+ charge carriers. The retention time window and mass window alignment tolerances were set to 0.4 min and 10 ppm, respectively. The extracted peptide peak areas were then used to determine a fold change value in the treated vs. control samples to help identify potential AcK sites that may be affected by aggrelyte-2. Due to a lack of statistical power, a three-fold change filter was used as a sufficient cutoff to identify potential AcK sites of interest. […]

mouse lenses [3] = assay: AcK in WS fraction of treated mouse lenses (LC-MS/MS); details: 1 mM, 24 hours, vs untreated controls and Aggrelyte-2C (p<0.0001)
Experimental: Mouse and human lenses were treated with aggrelytes as described in Example 10. Water-soluble proteins from mouse and human lenses were obtained as described in Example 13. Effects of aggrelyte treatment on AcK-bearing proteins in the WS fractions were evaluated by LC-MS/MS analysis as described in Example 6.

T2 sequence (Q71U36 whole entry): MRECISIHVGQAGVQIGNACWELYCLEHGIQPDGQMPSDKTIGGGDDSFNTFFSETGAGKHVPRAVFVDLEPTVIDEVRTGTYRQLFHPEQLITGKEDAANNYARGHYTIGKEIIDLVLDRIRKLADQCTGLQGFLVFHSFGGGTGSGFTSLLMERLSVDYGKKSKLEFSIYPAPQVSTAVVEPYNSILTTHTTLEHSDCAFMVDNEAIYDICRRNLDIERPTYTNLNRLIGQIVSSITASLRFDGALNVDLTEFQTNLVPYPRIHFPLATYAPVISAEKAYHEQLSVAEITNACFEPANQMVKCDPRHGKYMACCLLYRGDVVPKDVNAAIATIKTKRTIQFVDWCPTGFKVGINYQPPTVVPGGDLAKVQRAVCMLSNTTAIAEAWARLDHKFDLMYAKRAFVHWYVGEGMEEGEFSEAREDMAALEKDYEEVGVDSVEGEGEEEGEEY

SMILES: COC(=O)[C@H](CSC(C)=O)NC(C)=O [Aggrelyte-2, N,S-diacetyl-L-cysteine methyl ester]
- levels of both CML and CEL (AGEs) after glycation (γD-crystallin (γDC)): significantly reduced (p<0.0001)
- density of acetyl-bearing proteins, fold increase compared to untreated control lenses (mouse lenses [1]): 2 fold
- Fold Change (Aggrelyte-2 vs Control) [Total Sum] [2]: *
- Aggrelyte-2 treated Area ([2]; lens of donor): 4.24E+04
- AcK modifications in WS proteins (LC-MS/MS) (mouse lenses [3]): significantly higher AcK modifications
